US5880146A, “Inhibition of IL-12-induced IFN-γ synthesis by specific bis-phenol compounds as a method of immune modulation” (Fuji ImmunoPharmaceuticals Corporation, priority 1995, dated 1999)

Key:
[1] = system: IL-12 induction of IFN-γ in PHA-activated human PBMC; test: Screening assay for compounds which inhibit IL-12 induction of IFN-γ (ELISA); format: cell-based; details: 5 μg/ml, IL-2 25 U/ml + IL-12 0.5 ng/ml, 48 hr, single test, read-out: % INH of IFNγ
Description: Human peripheral blood monocytes (PBMC) were obtained from commercial sources as a leukophoresis from a healthy volunteer and were purified by centrifugation on a Ficoll-Hypaque (Pharmacia) gradient (1700 rpm for 20 min). The "buffy" coat containing the PBMC was diluted with serum-free culture medium (SF-RPMI) to a volume of 50 ml and collected by centrifugation at 1500 rpm for 5 min. Cells were resuspended in cell culture medium containing 10% fetal bovine serum (RPMI-10) and phytohemaglutinin (PHA - 10 μg/ml) at a density of 5×10^6 cells/ml and were cultured for 3 days at 37° C. in a humidified CO2 incubator. The PHA-activated cells were collected by centrifugation, washed three times with an equal volume of SF-RPMI and resuspended in fresh RPMI-10 (1×10^6 cells /ml). Aliquots (100 μl) were dispensed into the wells of multiple 96-well plates to give a final cell number of 10^5 per well. Test compounds, dissolved in dimethyl sulfoxide (DMSO) at 1 mg/ml, were first diluted in culture medium to an intermediate concentration of 20 μg/ml and then were added (50 μwell) to a specific well of the plate for each compound. Stimulation medium (50 μl/well) containing 10% serum, IL-2 and IL-12 was added to final concentrations of 25 U/ml and 0.5 ng/ml, respectively. Control wells receive no IL-2 or IL-12 (negative control) or received both interleukins but no test compound (positive control). The plates were incubated for 48 hr at 37° C. in a CO2 incubator at which time aliquots (20 μl) were removed for analysis of IFN-γ concentration by ELISA. A quantitative ELISA was developed by coating 96-well plates with an mouse monoclonal antibody against human IFN-γ, 1 μg/ml in phosphate buffered saline (PBS) (Pestka Biological Laboratories), overnight at 4° C. Unbound antibody was washed off by washing three times with PBS. Non-specific antibody binding was blocked with a solution of 1% bovine serum albumin (BSA) and 1% goat serum in PBS (150 μl/well) which was incubated for 2 hr at 37° C. After washing the blocked plates four times with PBS, test samples and dilutions of the IFN-γ standard are added in a final volume of 100 μl/well. Following an overnight incubation at 4° C., the plates are washed four times with PBS, and a polyclonal rabbit antiserum against human IFN-γ (1/10000 dilution--Petska Biological Laboratories) is added. After an additional incubation for 1 hr at 37° C. and four washes with PBS, a polyclonal donkey anti-rabbit detecting antibody, conjugated to horseradish peroxidase (1/700 dilution--Petska Biological Laboratories) is added for 1 hr at 37° C. The plates are then washed four times with PBS and 100 μl of K-blue substrate E(ILISA Technologies, Neogen Corp.) is added until the color in the wells containing the standard curve is sufficiently developed, at which time 100 μl of "Red-stop" solution (ELISA Technologies) is added. The absorbance of the solution within each well of the plate is then read at 650 nm using an ELISA plate reader (Dynatech MR7000). The amount of IFN-γ is calculated by comparing the optical density of the test sample with a standard curve derived from the dilutions of the control IFN-y. The amount of IFN-γ that is induced in the presence of both IL-2 and IL-12 generally ranges from 1200-2000 pg/ml while the amount produced in the absence of IL-12 is generally less than 50 pg/ml. Experimental data are shown in Table 2 which discloses a) the percent inhibition of IFNγ production, relative to a […], when the cells have been treated with a bis-compound at a final concentration of 5 μg/ml of the listed bis-compound (%INH or IFNγ) and b) the percent of cells which are viable after the treatment with 5 μg/ml of the various bis-compounds, determined by adding MTS to the media (% Viability). MTS is a chemical chromophore that is metabolized in the mitochondria of viable cells to produce a color which increases in intensity in proportion to the numbers of viable cells. […]

[2] = Cell viability (MTS) after treatment with bis-compound; format: cell-based; details: human, pha-activated pbmc, 5 μg/ml
Description: Human peripheral blood monocytes (PBMC) were obtained from commercial sources as a leukophoresis from a healthy volunteer and were purified by centrifugation on a Ficoll-Hypaque (Pharmacia) gradient (1700 rpm for 20 min). The "buffy" coat containing the PBMC was diluted with serum-free culture medium (SF-RPMI) to a volume of 50 ml and collected by centrifugation at 1500 rpm for 5 min. Cells were resuspended in cell culture medium containing 10% fetal bovine serum (RPMI-10) and phytohemaglutinin (PHA - 10 μg/ml) at a density of 5×10^6 cells/ml and were cultured for 3 days at 37° C. in a humidified CO2 incubator. The PHA-activated cells were collected by centrifugation, washed three times with an equal volume of SF-RPMI and resuspended in fresh RPMI-10 (1×10^6 cells /ml). Aliquots (100 μl) were dispensed into the wells of multiple 96-well plates to give a final cell number of 10^5 per well. Test compounds, dissolved in dimethyl sulfoxide (DMSO) at 1 mg/ml, were first diluted in culture medium to an intermediate concentration of 20 μg/ml and then were added (50 μwell) to a specific well of the plate for each compound. Stimulation medium (50 μl/well) containing 10% serum, IL-2 and IL-12 was added to final concentrations of 25 U/ml and 0.5 ng/ml, respectively. Control wells receive no IL-2 or IL-12 (negative control) or received both interleukins but no test compound (positive control). The plates were incubated for 48 hr at 37° C. in a CO2 incubator at which time aliquots (20 μl) were removed for analysis of IFN-γ concentration by ELISA. A quantitative ELISA was developed by coating 96-well plates with an mouse monoclonal antibody against human IFN-γ, 1 μg/ml in phosphate buffered saline (PBS) (Pestka Biological Laboratories), overnight at 4° C. Unbound antibody was washed off by washing three times with PBS. Non-specific antibody binding was blocked with a solution of 1% bovine serum albumin (BSA) and 1% goat serum in PBS (150 μl/well) which was incubated for 2 hr at 37° C. After washing the blocked plates four times with PBS, test samples and dilutions of the IFN-γ standard are added in a final volume of 100 μl/well. Following an overnight incubation at 4° C., the plates are washed four times with PBS, and a polyclonal rabbit antiserum against human IFN-γ (1/10000 dilution--Petska Biological Laboratories) is added. After an additional incubation for 1 hr at 37° C. and four washes with PBS, a polyclonal donkey anti-rabbit detecting antibody, conjugated to horseradish peroxidase (1/700 dilution--Petska Biological Laboratories) is added for 1 hr at 37° C. The plates are then washed four times with PBS and 100 μl of K-blue substrate E(ILISA Technologies, Neogen Corp.) is added until the color in the wells containing the standard curve is sufficiently developed, at which time 100 μl of "Red-stop" solution (ELISA Technologies) is added. The absorbance of the solution within each well of the plate is then read at 650 nm using an ELISA plate reader (Dynatech MR7000). The amount of IFN-γ is calculated by comparing the optical density of the test sample with a standard curve derived from the dilutions of the control IFN-y. […] MTS is a chemical chromophore that is metabolized in the mitochondria of viable cells to produce a color which increases in intensity in proportion to the numbers of viable cells. The absorbance of the cell culture can be compared to control cultures in order to determine the percent viability.

Row | Structure (SMILES) | inhibition at 5 µg/mL [1] [%] | viability [2] [%]
1 | Cc1cc(Cl)cc(Cc2cc(Cl)cc(C)c2O)c1O [Compound 8296] | 103 | 37
2 | CCCC(c1cc(C)cc(C)c1O)c1cc(C)cc(C)c1O [Compound 51851] | 86 | 107
3 | CC(C)(C)c1cc2c(cc1O)C(C)(C)c1cc(O)c(C(C)(C)C)cc1O2 [Compound 53433] | 97 | 26
4 | CC(C)(C)CC(C)(C)c1cc2c(cc1O)C(C)(C)c1cc(O)c(C(C)(C)CC(C)(C)C)cc1O2 [Compound 53437] | 74 | 85
5 | Cc1cc(C(c2cc(C)c(O)c(C)c2)c2ccc(O)c(O)c2)cc(C)c1O [Compound 54004] | -37 | 99
6 | Cc1cc(C(C)c2cc(C)cc(C(C)(C)C)c2O)c(O)c(C(C)(C)C)c1 [Compound 54005] | 96 | 30
7 | Cc1cc(O)c(C(C)C)cc1C(c1ccccc1)c1cc(C(C)C)c(O)cc1C [Compound 54007] | 95 | 26
8 | CCC(c1cc(C)cc(C(C)(C)C)c1O)c1cc(C)cc(C(C)(C)C)c1O [Compound 54008] | 91 | 69
9 | Cc1cc(C(c2ccc(Cl)cc2)c2cc(C)c(O)c(C)c2)cc(C)c1O [Compound 54042] | 28 | 102
10 | Cc1cc(C2(c3ccc(O)c(C)c3)CCCCC2)ccc1O [Compound 54048] | 68 | 79
11 | Cc1cc(C(c2ccc(C(=O)O)cc2)c2cc(C)c(O)c(C)c2)cc(C)c1O [Compound 54050] | 63 | 86
12 | Cc1cc(C(c2ccc([N+](=O)[O-])cc2)c2cc(C)c(O)c(C(C)(C)C)c2)cc(C(C)(C)C)c1O [Compound 54053] | 93 | 33
13 | Cc1cc(C(C)c2cc(C)c(O)c(C(C)(C)C)c2)cc(C(C)(C)C)c1O [Compound 54054] | 98 | 27
14 | CC(C)(C)c1cc(C(c2ccc(C(=O)O)cc2)c2cc(C(C)(C)C)c(O)c(C(C)(C)C)c2)cc(C(C)(C)C)c1O [Compound 54055] | 83 | 88
15 | CCC(C)(c1cc(C)c(O)c(C)c1)c1cc(C)c(O)c(C)c1 [Compound 54056] | 84 | 87
16 | Cc1cc(C(c2ccccc2)c2cc(C)c(O)c(C(C)(C)C)c2)cc(C(C)(C)C)c1O [Compound 54058] | 88 | 86
17 | CCCCCCC(C)(c1ccc(O)cc1)c1ccc(O)c(C)c1 (centres unmarked) [Compound 54059] | 64 | 88
18 | CCCC(C)(c1ccc(O)cc1)c1ccc(O)c(C)c1 (centres unmarked) [Compound 54063] |  | 93
19 | CCCCCCC(C)(c1ccc(O)c(C)c1)c1ccc(O)c(C)c1 [Compound 54094] |  | 25
20 | CCCC(CCC)(c1ccc(O)cc1)c1ccc(O)c(C)c1 [Compound 54099] |  | 93
21 | CCC(c1cc(C)c(O)c(C(C)C)c1)c1cc(C)c(O)c(C(C)C)c1 [Compound 54109] | 93 | 33
22 | Cc1cc(C(c2ccc(C(C)C)cc2)c2cc(C)c(O)c(C)c2)cc(C)c1O [Compound 54114] | 65 | 96
23 | Cc1cc(C(c2ccc(C(=O)O)cc2)c2cc(C)c(O)c(C(C)(C)C)c2)cc(C(C)(C)C)c1O [Compound 54346] | 91 | 84
24 | CCC(c1cc(C)c(O)c(C)c1)c1cc(C)c(O)c(C)c1 [Compound 54471] | 89 | 83
25 | CCC(c1cc(C)c(O)c(C(C)(C)C)c1)c1cc(C)c(O)c(C(C)(C)C)c1 [Compound 54472] | 98 | 26
